Measurements published in patent publication US5955508A, “Method for the enhancement of lymphocyte activity against opportunistic microbial pathogens” (priority 1996, dated 1999).
Read-outs that look alike come from different tables or passages of the source.

Columns and labels:
[1] = tested on: lymphocyte functions; conditions: Clancy and Lorens, 1996, Mathews et al.; cited from earlier work
[2] = tested on: K562 human tumor cells; assay: Incidence and metastasis of human K562 tumors in SCID mice reconstituted with human PBMC; format: in vivo
Procedure: The purpose of the present experiments was to determine whether d-FEN can enhance the ability of the human immune system to kill a human tumor cell line, vis. K562 human chronic myelogenous leukemia cells. Toward this end d-FEN and vehicle (VEH) treated young male severe combined immunodeficient (SCID) beige mice, reconstituted 4 days previously with human peripheral blood mononuclear cells (PBMC) obtained from two human volunteers, were injected with K562 cells and tumor size and number measured 13-18 days later.
SCID mice (n=36) were obtained from Harlan Sprague-Dawley Inc. (Indianapolis, Ind.). This inbred strain of mice are devoid of T, B, and natural killer (NK) cells. The animals were housed 3/cage in an AAALAC approved facility with a 12 h light-dark cycle (lights on at 07:00 h). The temperature and humidity of the facility were maintained between 72-75° F. and 52-55% respectively. Food (Purina mouse chow) and water were available ad libitum.
Protocol. The animals were divided into groups of 6 and subjected to the following treatment for each of the 2 human donors tested:
The mice treated with d-FEN (10 mg/kg/day, p.o.) received the drug daily in their drinking water beginning 10 days prior to inoculation with human PBMC. On the day of PBMC injection (3×10^7 human PBMC/mouse, i.p.) the dose of d-FEN was reduced to […]. The average daily water intakes and body weights of the mice were 6 ml and 20 g, respectively. Therefore, a dose of 6 mg/kg equaled 2 mg of d-FEN per 100 ml of water. Four days after reconstitution with human PBMC, 1×10^7 K562 human tumor cells/mouse were injected i.p. The animals were sacrificed between 11:00 and 13:00 h 13-18 days after K562 cell injection (17-22 and 27-32 days, respectively, after transfection with human PBMC and the start of d-FEN treatment). The animals were thoroughly necropsied and tumor sites counted, excised, weighed and fixed for histological analysis.
For reconstitution of SCID mice with human PBMC, 500 ml of venous blood was drawn into sterile plastic pouches containing preservative free heparin. Blood was drawn by Apheresis Lab nurses at LUMC (Loyola University Medical Center) and was diluted with an equal volume of HBSS. The diluted blood (20 ml) was layered over 10 ml of Histopaque 1077 (Sigma Chemical Company, St. Louis, Mo.) and centrifuged at 1000×g for 30 min. After centrifugation, the mononuclear cell layer was recovered from the interface and washed twice in HBSS. After microscopic enumeration, the PBMC were resuspended in HBSS at a concentration of 1×10^8 cells/ml, and 0.3 ml (3×10^7 cells) of the cell suspension was injected (i.p.) into each SCID mouse.
The K562 cell line originated from a chronic myelogenous leukemia patient and was obtained from Dr. T. Ellis (Director, Cellular Immunology Laboratory, LUMC). The K562 cells used for assessment of cytotoxic activity were maintained in long term cultures using Corning 25 cm^2 tissue culture flasks (Corning Glass Works, Corning, N.Y.) containing RPMI 1640 (Gibco Laboratories, Grand Island, N.Y.) supplemented with low LPS 10% fetal bovine serum (FBS; Gibco), 100 units/ml penicillin, 100 μg/ml streptomycin (Whittaker M. A. Bioproducts, Walkersville, Md.), 0.1 mM non-essential amino acids, and 2 mM L-glutamine (Gibco). This medium was used throughout, except where noted, and is referred to as "culture medium". The K562 cells were grown in suspension and were passaged three times per week by transfer of 10^6 K562 cells into a flask containing 10 ml of fresh culture medium. The K562 cells injected into the SCID mice were supplemented with fresh medium at a 1:3 dilution the day before administration. They were washed once in medium, pelleted by centrifugation at 500 ×g for 10 min., then resuspended at a concentration of 5×10^7. Subsequently, 0.2 ml (1×10^7 cells) of the cell suspension was injected (i.p.) into each SCID mouse. The K562 cells were administered to the animals four days after the injection of PBMC.

[3] = tested on: INF-γ in CD4+ (CD8-) T cells; assay: INF-γ production by CD4+ (CD8-) T cells, flow cytometry; format: cell-based, human; conditions: for % Positive Cells (INF-γ immunopositive), d-FEN / INF-γ Titer, d-FEN: CD4+ (CD8-) T cells, Mean ± SEM; for activation at 0.05 µg/mL: Homo sapiens, T-cell
Text: The T lymphocytes analyzed were obtained from 20 HIV+ patients (9 females and 11 males, 25-48 years of age). The patients were diagnosed as being HIV+ within the past 0.5-9 years, and 15 are being treated with antiviral drugs. The subjects' study identification number (indicates the order in which bloods were drawn), CD4+ and CD8+ counts (determined March, 1996, as part of the present study), age, sex, date of diagnosis, and pharmacotherapy are provided in Table 1.
The experimental protocol for this project is illustrated in Table A. Note that the cultures were exposed to two doses (5 and 50 ng/ml) of d-FEN in the mitogenesis assays, whereas only one dose (50 ng/ml) was used in the antifungal and cytokine release assays.
Cytokine Profiles. Peripheral mononuclear cells were isolated by the Ficoll-Hypaque method and washed twice with RPMI-1640 medium. Cell suspensions were made at 1×10^6 /ml and the cells activated with interleukin-2 (IL-2) for 18 h or 4 days at 37° C. under 5% CO^2 +95% air. Monensin (1 nM) then was added to the culture to block secretion of cytokines, and the cultures allowed to continue for another 3 h. The cells were washed twice with PBS+1% fetal calf serum (FCS) with 0.1% saponin+0.1% sodium azide, then washed once with PBS-1% FCS and stained with anti-cytokine MAb-FL conjugate for 30 min. Following two washes, the cells were analyzed by flow cytometry for production of IL-2, IFN-γ and TNF-α. The MAbs-FL conjugates were obtained from Pharmingen (San Diego, Calif.). Potential effects of on cytokine production were evaluated (a) as increases in the percentage of a T cell subset which produce the respective cytokine; and, (b) as increases in the amount of cytokine produced by each subset. The latter were analyzed as a shift of the cytokine histograms.
The data were analyzed by a one- or two-way analysis of variance (ANOVA) with repeated measures where appropriate ([…] version 1; Jandel, San Rafael, Calif.). Significant main effects were subjected to post hoc analysis using the Student-Newman Keuls All Pairwise Multiple Comparisons test or the Mann-Whitney U test.

[4] = K562 + PBMC + d-FEN (10 then 6 mg/kg/day p.o.)
[5] = K562 + PBMC + d-FEN (10 then 6 mg/kg/day p.o.), p = 0.05

## CCN[C@@H](C)Cc1cccc(C(F)(F)F)c1 [d-FEN]
[1]
  immune functions in experimental animal models, in words: augment T and B lymphocyte functions, to increase cell-mediated cytotoxicity for natural killer cell (NK) tumor targets and to enhance cell-mediated activities for opportunistic microbial pathogens
[2]; [4]
  Number of Mice Showing Multiple Tumor Sites: 1/12
  Percent of Mice Showing Multiple Tumor Sites / tumor metastasis: 8%
[2]; [5]
  Number of Mice Having Tumors: 5/12
  Percent of Mice Having Tumors: 42%
[2]; K562 + PBMC + d-FEN (10 then 6 mg/kg/day p.o., drinking water)
  Body Weight: 17.5 ± 2.1 g
[2]; d-FEN treated SCID mice, p=0.05
  incidence of histopathologically confirmed lymphomas in words: significantly (p=0.05) reduced incidence
[2]; d-FEN treated vs control SCID mice
  body weights and water intakes in words: did not differ from those of the control animals
[2]; d-FEN treated vs other two groups, p=0.6
  tumor metastasis in words: did not reach significance
[2]; doses used during the studies
  anorexigenic action and weight loss: No effect of this type was observed
[2]; one of the d-FEN treated mice, with metastasis
  largest tumor: 0.833 g
[3]; 50 ng/ml, AIDS
  % Positive Cells (INF-γ immunopositive), d-FEN: 18 ± 2%
  INF-γ Titer, d-FEN: 336 ± 45 geometric mean channel fluorescence
[3]; 50 ng/ml, non-AIDS HIV+
  % Positive Cells (INF-γ immunopositive), d-FEN: 16 ± 2%
  INF-γ Titer, d-FEN: 473 ± 37 geometric mean channel fluorescence
[3]; 50 ng/ml, CD4+ T cells
  effect on INF-γ levels in words: did not have any significant effect
[3]; read-out: percent increase over VEH (printed under Titer, d-FEN), 50 ng/ml, CD4+ T cells, AIDS
  activation at 0.05 µg/mL: 38%
[3]; read-out: percent increase over VEH (printed under Titer, d-FEN), 50 ng/ml, CD4+ T cells, non-AIDS
  activation at 0.05 µg/mL: 33%
[3]; 50 ng/ml, CD4+ T cells, all patients, p=0.007, read-out: increase in the percent of INF-γ immunopositive T cells
  activation at 0.05 µg/mL: 33 to 38%
